Test system: Isocitrate Dehydrogenase-1 (IDH-1)
Experiment: Western blot, IDH1 levels
Assay type: cell-based, human
Protocol: The whole cell pellets were resuspended one at a time in 1 mL of C7 buffer and transferred to labeled 15 mL tubes. The samples were then sonicated in the cold room on ice using 6 sonic pulses with the setting at #14. The samples were spun for a short time to 2500 g after sonication and the samples transferred to 2 ml tubes. The pH was verified of each sample (pH should be 9.0) using the foam remaining in the […] sample tubes.
Alkylation and reduction of samples was performed for each sample by adding 10 ul of 1M acrylamide, 25 ul of tributylphoshene and incubation for 90 mins with intermittent mixing. After incubation, 10 ul of 1M DTT was added and the tubes were spun at 20,000 g at 20 deg C. for 10 minutes and transferred the supernatant to labeled Amicon Ultra centrifugal filter units with a 10 k cut off (Millipore catalog # UFC 801024). The samples were spun for 15 minutes at 2500 g in 2 intervals. The conductivity was measured for Chaps alone as well as the samples using a conductivity meter. If the conductivity of samples is high, then 1 ml of chaps was added for buffer exchange and spun again at 2500 g until the volume was down to 250 ul. When the conductivity was 200 or less the samples were spun in 5 min intervals at 2500 g until the volume of the supernatant was between 150-100 ul. The sample supernatants were transferred to eppendorf tubes and Bradford assay was performed using BSA as standard.
The samples were processed as per standard protocols as described above and the amount of protein in each of the samples was determined by Bradford assay. Sample volumes equivalent to 10 ug of protein were prepared as shown below with Lamelli Loading dye (LDS) and MilliQ water were run on a 4-12% Bis-Tris Novex NuPAGE gel (Invitrogen, cat # NP0323Box)
The gels were run for 50 minutes using 1×MOPS buffer using a NOVEX Xcell Surelock system at 200 V. The gels were then transferred for 1 hour using a NOVEX Xcell Surelock wet transfer protocol at 30 V. The blots were stained with Simply Blue Safestain from Invitrogen (LC6065).
After transfer each of the blots was placed in between 2 Whatman Filter papers and dried for 15-20 minutes. After drying the blots were labeled with the date, the type of samples and either blot 1 or blot 2 using a HB pencil. The molecular weight markers were outlined with the pencil and with single lines for the blue and a doublet for the colored markers. The blots were activated with methanol for 5 seconds, washed with water for 5 minutes, and TBST for 15 minutes. The blots were blocked for 1 hour with 5% blocking reagent in TBS-T at room temperature and then washed 3 times with TBS-T (1×-15′; 2×5′ each). […]

COC1=C(OC)C(=O)C(C/C=C(\C)CC/C=C(\C)CC/C=C(\C)CC/C=C(\C)CC/C=C(\C)CC/C=C(\C)CC/C=C(\C)CC/C=C(\C)CC/C=C(\C)CCC=C(C)C)=C(C)C1=O [Q10, Coenzyme Q10]
IDH1, Average Normalized Intensity (HDFa cells, HDF24-100 (HDF, Media = 346)): 600 | expression pattern of IDH1 (HDFa, nFIB and HASMC): did not demonstrate significant changes | expression of IDH1 (SCC25 cell lines): moderate increase in expression | expression of IDH1 (cancer cell lines MCF-7, SKMEL28, HepG2 and PaCa-2): increased expression

Reference: patent US10351915B2 (Berg LLC, priority 2009, dated 2019)
